The text below walks through data of ChEMBL document CHEMBL5543101, “Identification of 3-aryl-5-methyl-isoxazole-4-carboxamide derivatives and analogs as novel HIF-2α agonists through docking-based virtual screening and structural modification” (Eur J Med Chem, 2024).

The target of data set [1] is Endothelial PAS domain-containing protein 1 (Homo sapiens, UniProt Q99814).
Description: Agonist activity at HIF-2alpha in human 786-0 cells assessed as increase in VEGF secretion incubated for 20 hrs by ELISA
The nature of data set [2]: Clearance in male Sprague-Dawley rat at 5 mg/kg, po measured after 32 hrs by LC-MS/MS analysis. The conditions noted are these: in vivo.
A short description of data set [3]: in vivo. The note with it: male, Sprague-Dawley, rat, po, 5 mg/kg.
Description: Cmax in male Sprague-Dawley rat at 5 mg/kg, po measured after 32 hrs by LC-MS/MS analysis
Data set [4] is described as follows: in vivo. The note with it: male, Sprague-Dawley, rat, iv, 0.5 mg/kg.
Description: Cmax in male Sprague-Dawley rat at 0.5 mg/kg, iv measured after 32 hrs by LC-MS/MS analysis
Data set [5] in a line: Half-life in male Sprague-Dawley rat at 0.5 mg/kg, iv measured after 32 hrs by LC-MS/MS analysis. The note with it: in vivo.
A short description of data set [6]: in vivo. The note with it: male, Sprague-Dawley, rat, po, 5 mg/kg. This is another data set of the same source.
Description: AUC (0 to t) in male Sprague-Dawley rat at 5 mg/kg, po measured after 32 hrs by LC-MS/MS analysis
Data set [7] in a line: Clearance in male Sprague-Dawley rat at 0.5 mg/kg, iv measured after 32 hrs by LC-MS/MS analysis. The conditions noted are these: in vivo.
Data set [8] is described as follows: in vivo. The note with it: male, Sprague-Dawley, rat, iv, 0.5 mg/kg. This is another data set of the same source.
Description: Tmax in male Sprague-Dawley rat at 0.5 mg/kg, iv measured after 32 hrs by LC-MS/MS analysis
Data set [9] can be described thus: MRT (0 to t) in male Sprague-Dawley rat at 5 mg/kg, po measured after 32 hrs by LC-MS/MS analysis. The conditions noted are these: in vivo.
A short description of data set [10]: in vivo. The conditions noted are these: male, Sprague-Dawley, rat, po, 5 mg/kg. This is another data set of the same source.
Description: Tmax in male Sprague-Dawley rat at 5 mg/kg, po measured after 32 hrs by LC-MS/MS analysis
Data set [11] is described as follows: Half-life in male Sprague-Dawley rat at 5 mg/kg, po measured after 32 hrs by LC-MS/MS analysis. The conditions noted are these: in vivo.
The nature of data set [12]: MRT (0 to t) in male Sprague-Dawley rat at 0.5 mg/kg, iv measured after 32 hrs by LC-MS/MS analysis. The note with it: in vivo.
A short description of data set [13]: Volume of distribution at steady state in male Sprague-Dawley rat at 0.5 mg/kg, iv measured after 32 hrs by LC-MS/MS analysis. The note with it: in vivo.
The nature of data set [14]: in vivo. The conditions noted are these: male, Sprague-Dawley, rat, po, 5 mg/kg. This is another data set of the same source.
Description: Oral bioavailability in male Sprague-Dawley rat at 5 mg/kg measured after 32 hrs by LC-MS/MS analysis
Data set [15] is described as follows: in vivo. The conditions noted are these: male, Sprague-Dawley, rat, iv, 0.5 mg/kg. The source holds these as a separate data set.
Description: AUC (0 to t) in male Sprague-Dawley rat at 0.5 mg/kg, iv measured after 32 hrs by LC-MS/MS analysis

pEC50: −log10 of the molar value.

Sequence of Endothelial PAS domain-containing protein 1 (Q99814 whole entry, the tested form may be a part): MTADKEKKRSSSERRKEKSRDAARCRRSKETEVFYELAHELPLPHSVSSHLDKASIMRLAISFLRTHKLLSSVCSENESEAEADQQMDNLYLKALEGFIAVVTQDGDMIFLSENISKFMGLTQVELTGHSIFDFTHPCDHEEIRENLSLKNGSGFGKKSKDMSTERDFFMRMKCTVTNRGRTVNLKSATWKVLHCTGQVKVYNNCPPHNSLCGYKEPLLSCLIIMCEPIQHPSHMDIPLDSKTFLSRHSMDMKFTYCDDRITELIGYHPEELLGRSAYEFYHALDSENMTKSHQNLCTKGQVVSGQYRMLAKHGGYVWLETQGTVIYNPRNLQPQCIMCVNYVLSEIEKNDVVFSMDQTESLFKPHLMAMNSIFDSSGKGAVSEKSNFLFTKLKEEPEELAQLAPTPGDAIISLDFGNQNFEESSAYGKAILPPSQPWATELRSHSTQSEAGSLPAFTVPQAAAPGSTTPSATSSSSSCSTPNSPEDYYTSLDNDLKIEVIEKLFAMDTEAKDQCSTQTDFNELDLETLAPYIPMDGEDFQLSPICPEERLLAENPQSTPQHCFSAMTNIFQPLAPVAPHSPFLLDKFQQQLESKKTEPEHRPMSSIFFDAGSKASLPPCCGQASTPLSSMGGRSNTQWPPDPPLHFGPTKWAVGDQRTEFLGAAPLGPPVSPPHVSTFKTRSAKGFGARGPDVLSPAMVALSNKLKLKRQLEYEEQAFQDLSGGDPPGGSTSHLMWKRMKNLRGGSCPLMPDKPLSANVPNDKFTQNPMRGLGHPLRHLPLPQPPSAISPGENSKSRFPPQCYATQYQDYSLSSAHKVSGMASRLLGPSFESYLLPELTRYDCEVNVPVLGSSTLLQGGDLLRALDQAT

Consider `Cc1onc(-c2ccccc2Cl)c1C(=O)Nc1cc(C(F)(F)F)ccn1`, for which the pEC50 in data set [1] is 5.25.
`Cc1onc(-c2ccccc2Cl)c1C(=O)N1CCOCC1` showed a pEC50 in data set [1] of 5.01.
Compound `Cc1onc(-c2ccccc2F)c1C(=O)Nc1cccc(C(F)(F)F)c1` showed a pEC50 in [1] of 5.00.
For `Nc1ncc(C(=O)Nc2cccc(C(F)(F)F)c2)c(-c2ccccc2Cl)n1`, the pEC50 in [1] was 5.30.
In data set [1], `Cc1onc(-c2ccccc2Cl)c1C(=O)Nc1cccc(C#N)c1` showed a negative logarithm of the EC50 (pEC50) of 5.21. This pEC50 and that of the compound before are within 0.2 log units of each other.
`O=C(Nc1cccc(C(F)(F)F)c1)c1cn[nH]c1-c1ccccc1Cl`: in data set [2], the CL/F at 32 h was 8.83 mL/min/kg. Also, the Cmax at 32 h is 1290 ng/mL in “in vivo [3]” and 1620 ng/mL in “in vivo [4]”. Further, the half-life at 32 h in data set [5] was 2.53 h; in data set [11] it was 5.09 h. For the same compound, the values for the AUC(0-t) at 32 h in “in vivo [6]” and in “in vivo [15]” were 11100 ng·h/mL and 1610 ng·h/mL, respectively. Moreover, the clearance at 32 h in data set [7] was 5.33 mL/min/kg. The Tmax at 32 h in the data set “in vivo [8]” turned out to be 1.8 min; in the data set “in vivo [10]”, 1.33 h. The MRT last at 32 h was found to be 4.6 h in [9] and 1.54 h in [12]. In data set [13], this compound had a Vd at 32 h of 0.53 L/kg. In addition, the bioavailability at 32 h in the data set “in vivo [14]” stood at 68.7%. In data set [1], this compound gave a pEC50 of 5.75.
Turning to `Cc1onc(-c2ccccc2OC(F)F)c1C(=O)Nc1cccc(C(F)(F)F)c1`, the Cmax at 32 h in “in vivo [3]” stood at 35.9 ng/mL; in the data set “in vivo [4]”, 285 ng/mL. For the same compound, the AUC(0-t) at 32 h amounted to 194 ng·h/mL in “in vivo [6]” and 278 ng·h/mL in “in vivo [15]”. In addition, the Tmax at 32 h in “in vivo [8]” came to 1.8 min; in “in vivo [10]”, 1.5 h. In data set [9], this compound returned an MRT last at 32 h of 7.79 h. The compound also had a bioavailability at 32 h in the data set “in vivo [14]” of 7.02%. This compound had a pEC50 in data set [1] of 5.64.
